Assay results: patent US20250110113A1, “HUMAN ORGAN-ON-A-CHIP HAVING REVERSE MICRO-WEIR STRUCTURE AND USES THEREOF” (HUMANASE, priority 2022, published 2025)

Experiments:
Format in all cases: cell-based, human
[1] = system: liver cancer cells (HepG2); assay: Organ-on-a-chip containing liver cancer cells, doxorubicin treatment, optical microscope; settings: 100 μM doxorubicin in media supply chamber; 24 hours after treatment; HepG2 cultured 2 days on chip; compared with control group
Procedure: As for one set of a media supply chamber and a media recovery chamber included in the organ-on-a-chip of the present invention fabricated in Example 1, 200 μl of media (Minimum Essential Media Eagle (MEM, high-glucose, Gibco) supplemented with 25 mM HEPES (4-(2-hydroxyethyl)-1-piperazineethanesulfonic acid, Gibco), 25 mM NaHCO3 (Sodium bicarbonate, Sigma-Aldrich), 10% (v/v) FBS, and P/S (100 Uml-1penicillin/100 Uml-1streptomycin, Sigma-Aldrich Co., MO)) was loaded in each of the chambers. The flow of media was connected between each chamber by using a pipette, and then the media was filled inside the media channel located at both sides to finally form the flow of media. Particularly, it was confirmed that a boundary of the media was formed between the media channel and the cell chamber due to surface tension, with the inverted micro-weir structure serving as a boundary. […]
(§1) After 100 μM doxorubicin was added to the media supply chamber of the organ-on-a-chip containing liver cancer cells (HepG2) fabricated in Example 2-3-1, a change of liver cancer cells in the organ-on-a-chip due to doxorubicin was observed using an optical microscope, and the degree of damage to the liver cancer cells was compared and analyzed with a control group (FIG. 8). […]

[2] = system: breast cancer cells (MCF-7); assay: Organ-on-a-chip containing breast cancer cells, doxorubicin treatment, optical microscope; settings: 100 μM doxorubicin in media supply chamber; 24 hours after treatment; MCF-7 cultured 2 days on chip; compared with control group
Procedure: (§2) As for one set of a media supply chamber and a media recovery chamber included in the organ-on-a-chip of the present invention fabricated in Example 1, 200 μl of media (RPMI 1640 (Gibco) supplemented with 10% fetal bovine serum (FBS, Gibco)) was loaded in each of the chambers. The flow of media was connected between each chamber by using a pipette, and then the media was filled inside the media channel located at both sides to finally form the flow of media. Particularly, it was confirmed that a boundary of the media was formed between the media channel and the cell chamber due to surface tension, with the inverted micro-weir structure serving as a boundary.
Then, 3×10^4 breast cancer cells (Michigan Cancer Foundation-7, MCF-7) were injected into the cell inlet by using a pipette, and the injected breast cancer cells were injected into the cell chamber by pipetting. […] Subsequently, the cells were cultured in a humidified incubator for 2 days under the conditions of 37° C. and 5% CO2.
After 100 μM doxorubicin (TOCRIS) was added to the media supply chamber of the organ-on-a-chip containing breast cancer cells fabricated in Example 2-1-1, a change in breast cancer cells in the organ-on-a-chip due to doxorubicin was observed using an optical microscope, and the degree of damage to the breast cancer cells was compared and analyzed with a control group (FIG. 6). […]

[3] = system: cervical cancer cells (HeLa); assay: Organ-on-a-chip containing cervical cancer cells, doxorubicin treatment, optical microscope; settings: 100 μM doxorubicin in media supply chamber; 24 hours after treatment; HeLa cultured 2 days on chip; compared with control group
Procedure: as §2, with “(Dulbecco Modified Eagle Medium (DMEM, Gibco)” for “(RPMI 1640 (Gibco)”, “FBS)” for “fetal bovine serum (FBS, Gibco))”
Then, 3×10^4 cervical cancer cells (HeLa) were injected into the cell inlet by using a pipette, and the injected cervical cancer cells (HeLa) were injected into the cell chamber by pipetting. […] Subsequently, the cells were cultured in a humidified incubator for 2 days under the conditions of 37° C. and 5% CO2.
as §1, with “cervical” for “liver”, “(HeLa)” for “(HepG2)”, “2-2-1,” for “2-3-1,”, “in cervical” for “of liver”, “7).” for “8).”

Structure (SMILES): COc1cccc2c1C(=O)c1c(O)c3c(c(O)c1C2=O)C[C@@](O)(C(=O)CO)C[C@@H]3O[C@H]1C[C@H](N)[C@H](O)[C@H](C)O1 [doxorubicin]
- degree of damage to the liver cancer cells (cell death) [1]: most of the liver cancer cells cultured in the organ-on-a-chip were dead
- degree of damage to the breast cancer cells (cell death) [2]: most of the breast cancer cells cultured in the organ-on-a-chip were dead
- degree of damage to the cervical cancer cells (cell death) [3]: most of the cervical cancer cells cultured in the organ-on-a-chip were dead
